Molecules are shown by their SMILES. Where two headings read alike, the source gives them in different places. Where only a bound is given, the exact number is not on record here.

The source of these data is patent US20090209536A1, “AMINOQUINAZOLINE CANNABINOID RECEPTOR MODULATORS FOR TREATMENT OF DISEASE” (KALYPSYS, INC., priority 2007, published 2009).

For experiment [1], the target named is T1, human cannabinoid receptor type 1 (Homo sapiens, UniProt P21554).
T1 construct: purchased Perkin Elmer RBHCB1M; host or cells: HEK 293 EBNA cells
T1 sequence (P21554 whole entry): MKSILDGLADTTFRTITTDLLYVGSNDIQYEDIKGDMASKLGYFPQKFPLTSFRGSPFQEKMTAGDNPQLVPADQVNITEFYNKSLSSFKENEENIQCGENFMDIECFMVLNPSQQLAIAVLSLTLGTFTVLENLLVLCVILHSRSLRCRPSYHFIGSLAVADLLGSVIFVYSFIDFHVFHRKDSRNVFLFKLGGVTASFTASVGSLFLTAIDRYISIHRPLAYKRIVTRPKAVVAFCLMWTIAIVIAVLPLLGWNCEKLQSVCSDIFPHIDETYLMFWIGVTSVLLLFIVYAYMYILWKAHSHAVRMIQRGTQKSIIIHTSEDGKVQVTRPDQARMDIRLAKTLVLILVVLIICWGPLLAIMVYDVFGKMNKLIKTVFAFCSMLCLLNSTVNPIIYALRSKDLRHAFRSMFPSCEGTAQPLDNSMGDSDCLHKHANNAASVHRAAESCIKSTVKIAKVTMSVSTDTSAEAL
In words: Human CB1 Radioligand Binding Assay (basis of selectivity, CB2 vs. CB1). The following applies: CB1: HEK 293 EBNA cells expressing human CB1; CB2: CHO CB2 membranes. The protocol:
2. Human CB1 Radioligand Binding Assay
The incubation buffer was composed of 50 mM Tris-HCl pH 7.4, 2.5 mM EDTA, 5 mM MgCl2, 5.0 mg/ml fatty acid free BSA and the wash buffer was composed of 50 mM Tris-HCl pH 7.4, 2.5 mM EDTA, 5 mM MgCl2, 0.5 mg/ml fatty acid free BSA.

Experiment [2] has as its target T2, human cannabinoid receptor type 2 (Homo sapiens, UniProt P34972).
T2 construct: expressed in transfected cells; membrane preparation
The experiment is described as follows: Human CB2 Radioligand Binding Assay. The settings on record: membranes from stably transfected CHO CB2 cells. In short, it runs like this:
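Filtration competition binding on membranes from CHO cells stably expressing human CB2, with [3H]CP-55,940 at its lot-specific Kd, in 50 mM Tris-HCl pH 7.4, EGTA, MgCl2, 5 mg/ml BSA, 1% DMSO; 90 min at 30° C. Compounds at 10 uM single point or dose-response; bound radioactivity by scintillation, 100 nM CP-55,940 as 100% efficacy.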

[3] abbreviates: competition with [3H] CP-55,940, read-out: CB2 Ligand Binding Asssay EC50.

T2 sequence (P34972 whole entry): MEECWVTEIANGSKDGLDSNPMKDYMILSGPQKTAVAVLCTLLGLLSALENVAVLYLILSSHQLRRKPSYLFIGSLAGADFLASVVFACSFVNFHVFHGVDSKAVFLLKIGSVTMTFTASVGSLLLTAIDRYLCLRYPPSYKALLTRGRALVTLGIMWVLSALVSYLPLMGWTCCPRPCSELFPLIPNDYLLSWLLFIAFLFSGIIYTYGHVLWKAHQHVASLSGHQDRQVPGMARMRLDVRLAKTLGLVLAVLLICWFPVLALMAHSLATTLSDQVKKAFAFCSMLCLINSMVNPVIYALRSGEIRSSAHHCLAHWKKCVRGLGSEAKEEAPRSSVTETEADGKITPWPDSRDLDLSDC

By EC50 is commonly meant the concentration at which the effect is half-maximal. With `CC(C)(C)c1ccc(Nc2nc(-c3ccc(C(F)(F)F)cc3)nc3ccccc23)cc1` [Example 46, (4-tert-Butylphenyl)-[2-(4-trifluoromethylphenyl)quinazolin-4-yl]amine], the “Selectivity, CB2 vs. CB1” value in experiment [1] is “+ (+ indicates > 10−fold)”. Also, the EC50 in experiment [2] (setting [3]) was less than 1 µM.
In the same order, the values of `CN1CCCN(c2nc(-c3ccccc3Cl)nc3ccccc23)CC1` [Example 333, 2-(2-Chlorophenyl)-4-(4-methyl-1,4-diazepan-1-yl)quinazoline] are “− (− indicates ≦ 10−fold)” and less than 1 µM.
For `COC(=O)N1CCN(c2nc(-c3ccccc3Cl)nc3ccccc23)CC1` [Example 92, Methyl 4-(2-(2-Chlorophenyl)quinazolin-4-yl)piperazine-1-carboxylate] the same measures were “− (− indicates ≦ 10−fold)” and greater than 1 µM.
For `O=S(=O)(NCc1nc(N2CCOCC2)c2ccccc2n1)c1ccc2ccccc2c1` [Example 301, N-((4-Morpholinoquinazolin-2-yl)methyl)naphthalene-2-sulfonamide], the “Selectivity, CB2 vs. CB1” value in experiment [1] was “− (− indicates ≦ 10−fold)”. For the same molecule, the EC50 in experiment [2] (CB2 Ligand Binding Asssay EC50, competition with [3H] CP-55,940) was greater than 1 µM.
`C[C@@H]1CN(c2nc(-c3ccccc3Cl)nc3ccccc23)C[C@H](C)N1C` [Example 78, 2-(2-Chlorophenyl)-4-((3S,5R)-3,4,5-trimethylpiperazin-1-yl)quinazoline]: in experiment [1], the “Selectivity, CB2 vs. CB1” value is “− (− indicates ≦ 10−fold)”. Moreover, the EC50 in experiment [2] (setting [3]) was less than 1 µM.
`O=C1CN(c2nc(-c3ccccc3Cl)nc3ccccc23)CCN1` [Example 72, 4-(2-(2-Chlorophenyl)quinazolin-4-yl)piperazin-2-one]: the “Selectivity, CB2 vs. CB1” value in experiment [1] is “− (− indicates ≦ 10−fold)”. For the same molecule, in experiment [2] (setting [3]), the EC50 was greater than 1 µM.
In the same order, the values of `CC(=O)N1CCN(c2nc(-c3ccc(C(C)(C)C)cc3)nc3ccc(Cl)cc23)CC1` [Example 277, 1-(4-(2-(4-tert-Butylphenyl)-6-chloroquinazolin-4-yl)piperazin-1-yl)ethanone] are “− (− indicates ≦ 10−fold)” and greater than 1 µM.
In the same order, the values of `Fc1ccc(-c2nc(N3CCCC3)c3ccccc3n2)c(F)c1` [Example 22, 2-(2,4-Difluorophenyl)-4-(pyrrolidin-1-yl)quinazoline] are “− (− indicates ≦ 10−fold)” and less than 1 µM.
On to `CN(Cc1ccccc1)c1nc(-c2ccc(C(C)(C)C)cc2)nc2ccccc12` [Example 113, N-Benzyl-2-(4-tert-butylphenyl)-N-methylquinazolin-4-amine], for which the “Selectivity, CB2 vs. CB1” value in experiment [1] is “− (− indicates ≦ 10−fold)”. In addition, the EC50 in experiment [2] (setting [3]) was greater than 1 µM.
For `Clc1ccc(-c2nc(N3CCSCC3)c3cc(Cl)ccc3n2)cc1` [Example 211, 4-(6-Chloro-2-(4-chlorophenyl)quinazolin-4-yl)thiomorpholine] the same measures were “− (− indicates ≦ 10−fold)” and greater than 1 µM.
For `Clc1ccccc1-c1nc(NCC2CCCO2)c2ccccc2n1` (centres unmarked) [Example 188, 2-(2-Chlorophenyl)-N-((tertrahydrofuran-2-yl)methyl)quinzaoline-4-amine] the same measures were “− (− indicates ≦ 10−fold)” and greater than 1 µM.
For `CN1CCN(c2nc(C3CCCCC3)nc3ccccc23)CC1` [Example 33, 2-Cyclohexyl-4-(4-methylpiperazin-1-yl)quinazoline] the same measures were “− (− indicates ≦ 10−fold)” and less than 1 µM.
Take `COC(=O)c1ccc2nc(-c3ccccc3Cl)nc(N3CCc4cc(OC)ccc43)c2c1` [Example 330, Methyl 2-(2-chlorophenyl)-4-(5-methoxyindolin-1-yl)quinazoline-6-carboxylate]: the “Selectivity, CB2 vs. CB1” value in experiment [1] is “− (− indicates ≦ 10−fold)”. In addition, the EC50 in experiment [2] (setting [3]) was greater than 1 µM.
For `FC(F)(F)c1ccc(-c2nc(N3CCCC3)c3ccccc3n2)cc1` [Example 45, 4-(Pyrrolidin-1-yl)-2-(4-(trifluoromethyl)phenyl)quinazoline] the same measures were “+ (+ indicates > 10−fold)” and less than 1 µM.
Take `CN(c1ccccc1Cl)c1nc(-c2ccc(C(C)(C)C)cc2)nc2ccccc12` [Example 134, 2-(4-tert-Butylphenyl)quinazolin-4-yl 2-chlorophenyl-N-methylamine]: the “Selectivity, CB2 vs. CB1” value in experiment [1] was “− (− indicates ≦ 10−fold)”. The half-maximal effective concentration (EC50) in experiment [2] (setting [3]) was less than 1 µM.
In the same order, the values of `Fc1ccccc1-c1nc(N2CCCCC2)c2ccccc2n1` [Example 150, 2-(2-Fluorophenyl)-4-piperidin-1-ylquinazoline] are “− (− indicates ≦ 10−fold)” and less than 1 µM.
In the same order, the values of `Clc1ccc(-c2nc(N3CCCCC3)c3ccccc3n2)cc1` [Example 127, 2-(4-Chlorophenyl)-4-(piperidin-1-yl)quinazoline] are “− (− indicates ≦ 10−fold)” and greater than 1 µM.
For `O=S(=O)(NCc1nc(N2CCCC2)c2ccccc2n1)c1cccc2ccccc12` [Example 1, N-((4-(Pyrrolidin-1-yl)quinazolin-2-yl)methyl)naphthalene-1-sulfonamide] the same measures were “+ (+ indicates > 10−fold)” and less than 1 µM.
Take `Clc1ccc(-c2nc(N3CCCC3)c3cc(Cl)ccc3n2)cc1` [Example 209, 6-Chloro-2-(4-chlorophenyl)-4-(pyrrolidin-1-yl)quinazoline]: the “Selectivity, CB2 vs. CB1” value in experiment [1] is “− (− indicates ≦ 10−fold)”. The EC50 in experiment [2] (setting [3]) was greater than 1 µM.
In the same order, the values of `COC(CN(C)c1nc(-c2ccccc2Cl)nc2ccccc12)OC` [Example 229, 2-(2-Chlorophenyl)-N-(2,2-dimethoxyethyl)-N-methylquinazolin-4-amine] are “− (− indicates ≦ 10−fold)” and greater than 1 µM.
As to `CN(Cc1ccccc1)c1nc(-c2ccc(Cl)cc2)nc2ccccc12` [Example 120, N-Benzyl-2-(4-chlorophenyl)-N-methylquinazolin-4-amine], the “Selectivity, CB2 vs. CB1” value in experiment [1] was “− (− indicates ≦ 10−fold)”. In addition, in experiment [2] (setting [3]), the EC50 was greater than 1 µM.
Regarding `CCOC(=O)N1CCN(c2nc(-c3ccc(Cl)cc3)nc3ccc(OC(F)(F)F)cc23)CC1` [Example 223, Ethyl 4-(2-(4-chlorophenyl)-6-(trifluoromethoxy)quinazolin-4-yl)piperazine-1-carboxylate], the “Selectivity, CB2 vs. CB1” value in experiment [1] is “− (− indicates ≦ 10−fold)”. Also, the 50% effective concentration (EC50) in experiment [2] (setting [3]) is greater than 1 µM.
As to `c1ccc2c(N3CCCCC3)nc(C3CCCC3)nc2c1` [Example 136, 2-Cyclopentyl-4-piperidin-1-ylquinazoline], the “Selectivity, CB2 vs. CB1” value in experiment [1] was “− (− indicates ≦ 10−fold)”. Also, the EC50 in experiment [2] (setting [3]) was greater than 1 µM.
For `CN1CCN(c2nc(-c3ccc(C(C)(C)C)cc3)nc3ccccc23)CC1` [Example 109, 2-(4-tert-Butylphenyl)-4-(4-methylpiperazin-1-yl)quinazoline] the same measures were “+ (+ indicates > 10−fold)” and less than 1 µM.
With `Clc1ccccc1-c1nc(NCCCn2ccnc2)c2ccccc2n1` [Example 258, N-(3-(1H-Imidazol-1-yl)propyl)-2-(2-chlorophenyl)quinazolin-4-amine], the “Selectivity, CB2 vs. CB1” value in experiment [1] is “− (− indicates ≦ 10−fold)”. For the same molecule, the EC50 in experiment [2] (setting [3]) is greater than 1 µM.
